Experimental data published in paper PMC7470810 (Acta Pharmacologica Sinica, 2019).
Blank lines part the entries; values can stand above or below the molecule they belong to.

Legend:
SO and BDL rats = experiment: Y-maze test during AZT treatment; assay type: in vivo, rat
[1] = cited from earlier work
BCRP [2] = molecular target: BCRP (Homo sapiens, UniProt Q9UNQ0); details: HCMEC/D3 cells, siRNA for human ABCG2 vs CON
BCRP [3] = molecular target: T1, BCRP (Homo sapiens, UniProt Q9UNQ0); details: AZT 1 μM, 120 min
T1 sequence (Q9UNQ0 1-655): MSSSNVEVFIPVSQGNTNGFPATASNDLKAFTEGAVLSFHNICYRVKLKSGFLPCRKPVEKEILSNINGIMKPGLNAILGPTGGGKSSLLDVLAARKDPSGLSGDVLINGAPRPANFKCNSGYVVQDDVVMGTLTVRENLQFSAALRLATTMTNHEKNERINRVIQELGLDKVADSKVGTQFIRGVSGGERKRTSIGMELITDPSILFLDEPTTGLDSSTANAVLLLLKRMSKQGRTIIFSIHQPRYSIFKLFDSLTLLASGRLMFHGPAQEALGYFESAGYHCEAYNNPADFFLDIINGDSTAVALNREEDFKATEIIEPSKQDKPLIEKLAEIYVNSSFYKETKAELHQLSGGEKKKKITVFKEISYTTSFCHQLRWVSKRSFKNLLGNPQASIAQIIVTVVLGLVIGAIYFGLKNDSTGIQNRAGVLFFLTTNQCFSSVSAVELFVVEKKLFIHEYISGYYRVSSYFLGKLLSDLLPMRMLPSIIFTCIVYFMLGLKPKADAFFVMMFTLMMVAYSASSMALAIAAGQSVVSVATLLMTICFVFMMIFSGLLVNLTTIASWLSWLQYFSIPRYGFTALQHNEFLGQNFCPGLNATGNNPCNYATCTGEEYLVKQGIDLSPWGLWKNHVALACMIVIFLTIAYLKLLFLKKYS

brain BCRP = molecular target: T2, brain BCRP (Rattus norvegicus, UniProt Q80W57); details: normal rats
T2 sequence (Q80W57 1-657): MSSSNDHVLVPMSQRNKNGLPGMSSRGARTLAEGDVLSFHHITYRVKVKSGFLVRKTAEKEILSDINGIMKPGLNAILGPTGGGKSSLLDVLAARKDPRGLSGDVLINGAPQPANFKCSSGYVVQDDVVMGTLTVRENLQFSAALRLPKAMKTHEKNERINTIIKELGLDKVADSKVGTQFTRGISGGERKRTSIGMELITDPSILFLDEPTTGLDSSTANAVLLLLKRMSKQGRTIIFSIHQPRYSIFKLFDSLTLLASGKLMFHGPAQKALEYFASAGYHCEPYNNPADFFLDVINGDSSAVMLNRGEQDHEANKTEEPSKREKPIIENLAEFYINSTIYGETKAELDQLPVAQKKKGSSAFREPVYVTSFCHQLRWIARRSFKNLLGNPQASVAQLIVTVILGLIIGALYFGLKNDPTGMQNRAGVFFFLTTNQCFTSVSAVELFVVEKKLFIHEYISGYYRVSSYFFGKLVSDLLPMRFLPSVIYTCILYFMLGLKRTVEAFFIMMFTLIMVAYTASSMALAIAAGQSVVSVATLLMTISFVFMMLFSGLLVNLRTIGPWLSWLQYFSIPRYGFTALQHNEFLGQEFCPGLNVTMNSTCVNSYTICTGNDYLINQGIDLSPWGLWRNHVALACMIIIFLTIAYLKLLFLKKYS

BCRP [4] = molecular target: T1, BCRP; details: not told; cited from earlier work
MDCKII-WT cells = experiment: Uptake of AZT in MDCKII-WT cells; assay type: in vitro ADME, canine; details: wild-type MDCKII cells, AZT 1 μM, 120 min

Y-maze percentage of alternation of arm entrance (SO and BDL rats; BDL rats treated with AZT 100 mg/kg every day i.v. compared with SO rats): significantly decreased
impairment of cognitive function by AZT (SO and BDL rats; SO rats, AZT 100 mg/kg every day i.v., Y-maze and shuttle box): did not occur
uptake of AZT after BCRP siRNA knockdown (BCRP [2]): significantly increased
uptake of AZT in MDCKII-BCRP cells, % of that in MDCKII-WT cells (BCRP [3]): approximately 50.0%
Molecule: Cc1cn([C@H]2C[C@H](N=[N+]=[N-])[C@@H](CO)O2)c(=O)[nH]c1=O [AZT, Zidovudine]
Y-maze total number of entries, effect of AZT treatment (SO and BDL rats; BDL rats, AZT 100 mg/kg every day i.v., day 5 of treatment): further enhanced by AZT treatment, but the difference was not significant
plasma protein binding [1]: 10%

increase in Kin of AZT with novobiocin (brain BCRP; cortex, AZT 25 μM + novobiocin 200 μM, 2 min perfusion): not significant
Molecule: CO[C@@H]1[C@@H](OC(N)=O)[C@@H](O)[C@H](Oc2ccc3c(O)c(NC(=O)c4ccc(O)c(CC=C(C)C)c4)c(=O)oc3c2C)OC1(C)C [novobiocin]

Molecule: CC(C)(C)NC(=O)[C@@H]1C[C@@H]2CCCC[C@@H]2CN1C[C@@H](O)[C@H](Cc1ccccc1)NC(=O)[C@H](CC(N)=O)NC(=O)c1ccc2ccccc2n1 [saquinavir]
efflux by BCRP (BCRP [4]): BCRP also mediates the efflux

Molecule: Ko143
effect of incubation with Ko143 on uptake of AZT (MDCKII-WT cells): did not affect
effect of coadministration of Ko143 on influx of AZT into the hippocampus (brain BCRP): markedly increased
